Data as given in patent publication US10201625B2, “Radiolabelled octreotate analogues as PET tracers” (IMPERIAL COLLEGE, priority 2011, dated 2019).
Where two headings read alike, the source gives them in different places.

Experiments:
AR42J tumor = settings: same tumor model; cited from earlier work
somatostatin receptor = target: T1, somatostatin receptor (Rattus norvegicus, UniProt P30680); test: Competitive binding assay displacing [111In]-DTPA-Octreotide (OctreoScan) on AR42J tumour cells
T1 construct: endogenous in cells; host or cells: AR42J pancreatic tumour cells (whole cells)

[1] = Experimental: The octanol/PBS partition coefficients were determined using the shake flask method. Both solvents were presaturated with each other by shaking together for 5 min. To a solution of 500 μL of both octanol and PBS was added 20 μL of radiolabelled ligand in EtOH (n=3). The solutions mixtures were shaken in a rotamixer for 5 minutes. After equilibration the mixtures were centrifuged (10 min at 13,000 rpm) to achieve good separation. Samples from each layer (25 μL) were taken and measured in a γ counter and Log D was calculated according to the formula: log D=log(cpm in octanol layer/cpm in aqueous layer). Log D values were measured using the ^18F-labelled triazole. […] The receptor affinities for [^18F]1b-6b were determined using a competitive binding assay in AR42J tumours cells with [^111In]-OctreoScan as the labeled radiotracer.
AR42J tumor xenografts [2] = test: Dynamic PET imaging of AR42J tumor bearing mice; settings: mouse, in vivo; for Tumor radiotracer uptake at 60 min by imaging: iv
Description: (§1) Briefly, tail veins were cannulated under general anesthesia (isofluorane).

AR42J tumor xenografts [3] = test: Direct counting of tissue radioactivity (γ-counter), AR42J tumor; parameters: species or system mice; settings: mouse, in vivo
Description: (§2) Six to eight-week old female BALB/c nu/nu athymic mice were obtained from Harlan United Kingdom Ltd (Bicester, UK). […] Tumors were established by subcutaneous. injection of 100 μl of PBS containing 1×10^6 cells. […] All samples were weighed and their radioactivity directly determined using a Cobra II Auto-gamma counter (formerly Packard Instruments Meriden CT USA) applying a decay correction. The results were expressed as a percentage of the injected dose per gram (% ID/g).

[4] = Dynamic PET imaging of AR42J tumor bearing mice; settings: female, BALB/c nu/nu athymic, mouse, in vivo, iv, total radioactivity; AR42J tumor, 60 min, i.v.; read-out: Tumor radiotracer uptake at 60 min by imaging
Description: as §1

[5] = Direct counting of tissue radioactivity (γ-counter), AR42J tumor; parameters: species or system mice; settings: female, BALB/c nu/nu athymic, mouse, in vivo, iv, total radioactivity; AR42J tumor, after 60 min PET scan; read-out: Tumor radiotracer uptake after 60 min by γ-counting
Description: as §2

[6] = cited from earlier work
sstr-2 = sstr-2 (Homo sapiens, UniProt P30874); test: Calcium flux FLIPR assay, agonist mode, sstr-2 expressing Chem-1 cells
[7] = [19F]-triazole, read-out: Triazole analogue (b) IC50
[8] = read-out: Alkyne analogue (a) IC50

T1 sequence (P30680 whole entry): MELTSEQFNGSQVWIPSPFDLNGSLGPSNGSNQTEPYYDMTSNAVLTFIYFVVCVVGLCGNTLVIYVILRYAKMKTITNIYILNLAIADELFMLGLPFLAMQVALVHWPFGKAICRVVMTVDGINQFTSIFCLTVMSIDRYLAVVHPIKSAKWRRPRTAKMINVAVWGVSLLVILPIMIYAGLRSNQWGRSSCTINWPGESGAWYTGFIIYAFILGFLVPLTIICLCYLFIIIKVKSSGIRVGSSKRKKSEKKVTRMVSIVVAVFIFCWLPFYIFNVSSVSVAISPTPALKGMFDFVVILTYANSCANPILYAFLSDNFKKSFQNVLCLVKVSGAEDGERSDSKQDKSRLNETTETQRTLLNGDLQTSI
sstr-2, sequence (P30874 whole entry): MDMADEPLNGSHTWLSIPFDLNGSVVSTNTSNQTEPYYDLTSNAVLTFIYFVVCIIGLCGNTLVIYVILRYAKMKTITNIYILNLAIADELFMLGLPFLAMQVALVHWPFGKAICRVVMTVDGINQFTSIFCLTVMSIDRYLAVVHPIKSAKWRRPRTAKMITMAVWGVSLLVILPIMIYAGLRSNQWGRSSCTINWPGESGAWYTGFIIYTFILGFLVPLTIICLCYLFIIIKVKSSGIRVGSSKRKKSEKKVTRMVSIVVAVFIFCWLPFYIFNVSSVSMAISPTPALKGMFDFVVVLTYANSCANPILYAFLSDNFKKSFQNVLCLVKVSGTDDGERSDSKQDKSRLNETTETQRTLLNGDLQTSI

Question: For `C[C@@H](O)[C@@H]1NC(=O)[C@H](CCCCN)NC(=O)[C@@H](Cc2c[nH]c3ccccc23)NC(=O)[C@H](Cc2ccccc2)NC(=O)[C@@H](NC(=O)[C@@H](Cc2ccccc2)NC(=O)CN(CCN(CCN(CC(=O)[O-])CC(=O)O)CC(=O)[O-])CC(=O)[O-])CSSC[C@@H](C(=O)N[C@H](CO)[C@@H](C)O)NC1=O.[111In+3]` [[^111In]-DTPA-octreotide], which “Tumor uptake reported by Froidevaux et al.” value (AR42J tumor) is on record?
Answer: Its value is 3.03±0.26 % ID/g.

Question: For FET-G-TOGA [3b], which IC50 (somatostatin receptor; [7]) is on record?
Answer: The IC50 was 4 ± 1.4 nM.

Question: What about the “Log D” value [1] of the same compound?
Answer: Its value is −1.82.

Question: And the “Log D of 18F-triazole” value [1]?
Answer: Its value is −1.83.

Question: And the “Kidney uptake in words” value (AR42J tumor xenografts [2])?
Answer: The value was “highest”.

Question: And the “Liver uptake in words” value (AR42J tumor xenografts [2])?
Answer: Its value is “highest liver uptake”.

Question: And the “Tumor uptake/localization in words” value (AR42J tumor xenografts [2])?
Answer: Its value is “highest tumor uptake”.

Question: What about the “Tumor radiotracer uptake at 60 min by imaging” value (AR42J tumor xenografts [2]) of the same compound?
Answer: The value was 11.0 ± 1.49 % ID/ml.

Question: And the “Tumor radiotracer uptake after 60 min by γ-counting” value (AR42J tumor xenografts [3])?
Answer: Its value is 17.04 ± 2.76 % ID/g.

Question: For FETE-TOGA [4b], which IC50 (somatostatin receptor; [7]) is on record?
Answer: Its IC50 is 2.9 ± 1.3 nM.

Question: And the “Log D” value [1]?
Answer: Its value is −1.50.

Question: What about the “Log D of 18F-triazole” value [1] of the same compound?
Answer: The value was −1.5.

Question: And the “Tumor radiotracer uptake at 60 min by imaging” value (AR42J tumor xenografts [2])?
Answer: Its value is 6.11 ± 1.46 % ID/ml.

Question: And the “Tumor radiotracer uptake after 60 min by γ-counting” value (AR42J tumor xenografts [3])?
Answer: The value was 4.50 ± 1.51 % ID/g.

Question: For `C[C@@H](O)[C@H](NC(=O)[C@@H]1CSSC[C@H](NC(=O)[C@@H](Cc2ccccc2)NC(=O)CN2CCN(CC(=O)O)CCN(CC(=O)O)CCN(CC(=O)O)CC2)C(=O)N[C@@H](Cc2ccc(O)cc2)C(=O)N[C@H](Cc2c[nH]c3ccccc23)C(=O)N[C@@H](CCCCN)C(=O)N[C@@H]([C@@H](C)O)C(=O)N1)C(=O)O` [[^68Ga]DOTA-TATE, [^68Ga]-DOTATATE, metal not drawn, reference compound], which tissue uptake per volume at 1 h [4] is on record?
Answer: Its tissue uptake per volume at 1 h is 2.75 ± 0.11 %ID/mL.

Question: And the tissue uptake at 1 h [5]?
Answer: Its tissue uptake at 1 h is 3.78 ± 0.32 %ID/g.

Question: Which IC50 (somatostatin receptor; [8]) does the source give for `C#CC(=O)NCC(=O)N[C@H](Cc1ccccc1)C(=O)N[C@H]1CSSC[C@@H](C(=O)N[C@H](C(=O)O)[C@@H](C)O)NC(=O)[C@H]([C@@H](C)O)NC(=O)[C@H](CCCCN)NC(=O)[C@@H](Cc2c[nH]c3ccccc23)NC(=O)[C@H](Cc2ccc(O)cc2)NC1=O` [3a, G-TOCA] here?
Answer: Its IC50 is 1.4 ± 0.1 nM.

Question: Which results are given for FET-G-PEG-TOCA [1b]?
Answer: Log D [1]: −2.68; Log D of 18F-triazole [1]: −2.68; Tumor radiotracer uptake at 60 min by imaging (AR42J tumor xenografts [2]; 1 h): 5.36 ± 0.45 % ID/ml; Tumor radiotracer uptake after 60 min by γ-counting (AR42J tumor xenografts [3]; iv, 1 h): 8.29 ± 1.42 % ID/g

Question: Which IC50 (somatostatin receptor; [8]) does the source give for `C#CC(=O)NCCC(=O)NCC(=O)N[C@H](Cc1ccccc1)C(=O)N[C@H]1CSSC[C@@H](C(=O)N[C@H](C(=O)O)[C@@H](C)O)NC(=O)[C@H]([C@@H](C)O)NC(=O)[C@H](CCCCN)NC(=O)[C@@H](Cc2c[nH]c3ccccc23)NC(=O)[C@H](Cc2ccc(O)cc2)NC1=O` [5a, propynoyl-β-Ala-Gly-[Tyr^3]-Octreotate] here?
Answer: The IC50 was 1 ± 0.3 nM.

Question: For `C#CCCC(=O)N[C@H](Cc1ccccc1)C(=O)N[C@H]1CSSC[C@@H](C(=O)N[C@H](C(=O)O)[C@@H](C)O)NC(=O)[C@H]([C@@H](C)O)NC(=O)[C@H](CCCCN)NC(=O)[C@@H](Cc2c[nH]c3ccccc23)NC(=O)[C@H](Cc2ccc(O)cc2)NC1=O` [4a, E-TOCA], which IC50 (somatostatin receptor; [8]) is on record?
Answer: Its IC50 is 1.8 ± 0.8 nM.

Question: Which IC50 (somatostatin receptor; [7]) does the source give for FETE-PEG-TOGA [2b] here?
Answer: Its IC50 is 13.2 ± 7.8 nM.

Question: And the “Log D” value [1]?
Answer: Its value is −2.77.

Question: What about the “Log D of 18F-triazole” value [1] of the same compound?
Answer: Its value is −2.77.

Question: And the “Liver uptake in words” value (AR42J tumor xenografts [2])?
Answer: Its value is “highest liver uptake”.

Question: What about the “Tumor radiotracer uptake at 60 min by imaging” value (AR42J tumor xenografts [2]; 1 h) of the same compound?
Answer: Its value is 5.14 ± 0.40 % ID/ml.

Question: And the “Tumor radiotracer uptake after 60 min by γ-counting” value (AR42J tumor xenografts [3]; iv, 1 h)?
Answer: The value was 9.78 ± 2.57 % ID/g.

Question: Which Biological half life [6] does the source give for [Tyr^3]octreotate here?
Answer: The Biological half life was 1.5-2 hours.

Question: With `C#CCCC(=O)NCCOCCOCCOCCOCCOCCOCCC(=O)N[C@H](Cc1ccccc1)C(=O)N[C@H]1CSSC[C@@H](C(=O)N[C@H](C(=O)O)[C@@H](C)O)NC(=O)[C@H]([C@@H](C)O)NC(=O)[C@H](CCCCN)NC(=O)[C@@H](Cc2c[nH]c3ccccc23)NC(=O)[C@H](Cc2ccc(O)cc2)NC1=O` [2a, E-PEG-TOCA] as the compound, how does the IC50 (somatostatin receptor; [8]) read?
Answer: The IC50 was 5.1 ± 2.1 nM.

Question: Which results are given for FET-βAG-[W-c-(CTFTYC)K] [6b]?
Answer: Log D [1]: −1.14; Log D of 18F-triazole [1]: −1.14; Kidney uptake in words (AR42J tumor xenografts [2]): low; Tumor radiotracer uptake at 60 min by imaging (AR42J tumor xenografts [2]; 1 h): 0.10 ± 0.05 % ID/ml; Tumor radiotracer uptake after 60 min by γ-counting (AR42J tumor xenografts [3]; iv, 1 h): 0.22 ± 0.12 % ID/g; Activity/affinity on sstr-2 in words (sstr-2): poor affinity
